The subject of experiment [1] is Murine CPK Cells. Description: In vitro cyst formation and cyst size in suspension culture of murine CPK cells. The format is cell-based, mouse. Particulars: day 21, 24 h, final concentration per Table II (cytosine arabinoside 20 μg/ml, α-amanitin 100 ng/ml, cycloheximide 49 μg/ml, ouabain 1 mM, amiloride 1 mM, brefeldin-A 10 μg/ml, griseofulvin 350 μM, colchicine 10 μM, vinblastine 1 μM, nocodazole 30 μM, taxol 25 μM, cytochalasins 10 μM).

The next experiment concerns human ADPKD cells. Put plainly: In vitro cyst formation in human ADPKD cells. The format is cell-based. An excerpt: I have substituted human ADPKD cells for the murine CPK cells of Example 1 and produced similar results. Other cyst-forming cells are believed to also form suitable results with only minor deviations from the conditions set forth in Example 1.
Cell suspensions were separated from debris by sedimentation at unit gravity and decantation. After washing once with DMEM/F12 medium, cells were suspended in DMEM/F12 supplemented with 1.2 gm/l sodium bicarbonate, 1× insulin, transferrin and selenium (Sigma # 11184), 1% lipids supplement (Sigma # L4646) and 1× antibiotic/antimycotic (Sigma # A7292) at a density of 5×10^4 cells per ml. Two mls of the cell suspension were aliquoted into each well of a six-well plastic cell culture plates that had been precoated with 2 mls of 1% low melting point agarose in DMEM/F12 and incubated at 37° C. in a humidified atmosphere of 5% CO2 in air.
(§1) I used the in vitro cyst formation system of the present invention to analyze compounds that affect the process of cyst formation. To determine the therapeutic effectiveness of an agent, cyst-forming cells are suspended in a medium to which the agent has been added. These cells are then cultured on a solid phase without formation of a layer of cells on the surface, such as in the assay system described in Example 1. The extent to which the cells actually form cysts can be detected and compared to the extent of cyst formation expected if no agent were added. If the amount of cyst formation is lower than expected, then the agent is a good candidate for therapeutic intervention of cystic diseases.

Experiment [2] deals with Murine CPK Cells. Description: In vitro cyst formation and cyst size in suspension culture of murine CPK cells. It counts as cell-based, mouse. As to conditions: for Cyst Size: mean ± SD of twenty cysts, concentrations as in Table II, control 71 ± 22; for cyst formation (in words): 24 h suspension culture, ouabain 0.5 mM, also 1 mM, b155 taxol 25 μM, colchicine 10 μM, vinblastine 1 μM, cytochalasins 10 μM, model species not given. Here is the method:
At 10, 21 and 28 days after birth, mice having congenital polycystic kidney disease (CPK) and their phenotypically normal littermates were sacrificed by cervical dislocation. Kidneys were harvested aseptically and washed with DMEM/F12 (Sigma Chemical Co., St. Louis, Mo.) in a 1:1 mix. Each decapsulated kidney was chopped into cubes (1 mm) and incubated in 5 ml of collagenase solution composed of 1 mg/ml collagenase type IV (Worthington Biochemical Corporation, Freehold, N.J.), 1 mg/ml egg white trypsin inhibitor (Worthington) in 1:1 DMEM/F12.
The top 12 mls, which contained both single cells and aggregates of up to 10 cells, as assessed by inverted phase-ontrast microscopy, were placed in 2 ml aliquots in the wells of plastic culture plates (Corning, N.Y.) precoated with 1% agarose in DMEM:F12 (2 ml in each well of a 6-well plate; 1 ml in each well of a 24-well plate). Cell samples were digested with further incubation for 10 minutes in 0.05% trypsin and 0.53 mM EDTA (Gibco, BRL Gaithesburg, Md.) at 37° C. All cultures were plated at a final density of 1-3×10^4 cell, per well. For growth studies of monolayer cells, identical preparations were grown on the plastic surface of the culture plates. Both the monolayers and the cell suspensions were incubated at 37° C. in a moisture saturated incubator in 5% CO2 and air.
as §1
(§2) The effects of various metabolic inhibitors on cyst formation were studied in cultures derived from day 21 postnatal CPK mice. […] Taxol (25 μM), a microtubule specific inhibitor, was from Calbiochem (La Jolla, Calif.). All other chemicals were obtained from Sigma Chemical Co. Cytosine arabinoside was added at the final concentration of 20 μg/ml to inhibit DNA synthesis; α-amanitin at 100 ng/ml to inhibit RNA synthesis; cycloheximide at 40 μg/ml to inhibit protein synthesis; amiloride at 1 mM to inhibit the renal epithelial Na^+ -H^+ exchange; ouabain at 0.5 mM to inhibit Na^+ -K^+ -ATPase; brefeldin-A at 10 μg/ml to inhibit transport of surface proteins; griseofulvin at 350 μM to inhibit microtubule function; colchicine at 10 μM to inhibit microtubule polymerization; and cytochalasin-B and cytochalasin-D at 10 μM to depolymerize actin filaments.
(§3) In the presence of these metabolic inhibitors in vitro, cyst formation was noted to be either present or absent; if present, the diameters of 20 cysts from a 0.2 ml aliquot were measured. In the same samples, ^3 H-dThd incorporation was also measured as described above. […] After each wash, cell clusters were collected by centrifuging at 200×g for 1 minute and the supernatant discarded. Washed cell clusters were resuspended in the original volume of growth medium without inhibitors, placed in agarose coated wells and incubated at 37° C. in a moisture saturated incubator in 5% CO2 and air.
(§4) In this table, the mean cyst size is reported as ±SD with a measurement of twenty cysts. The ^3 H-dThd incorporation is reported as ±SD using measurements of three wells. The * indicates […] versus control. […] The entries listed as "NA" in the table indicate data that is not available.

Experiment [3] relates to Murine CPK Cells. Put plainly: 3H-thymidine incorporation (DNA synthesis) in CPK cell suspension culture. The format is cell-based, mouse. As to conditions: for ^3 H-dThd Incorporation: ± SD, three wells, concentrations as in Table II, control 100 ± 11, 1440 min; for ^3 H-dThd incorporation / DNA synthesis (in words): CPK cultures. Here is the method: Growth studies were performed on kidney cells derived from day 10, 21 and 28 postnatal CPK mice and their normal littermates. Immediately after cells were placed in suspension or monolayer culture, 3 μCi of ^3 H-thymidine (^3 H-dThd, specific activity 45 Ci/mmol, Amersham, Ill.) was placed in each well of the culture plate. DNA synthesis was assessed by incorporation of ^3 H-dThd over the 24 hours of culture, and trichloroacetic acid-insoluble. radioactivity was expressed as cpm/μg protein. Protein was assayed with the BCA reagent as described by the manufacturer (Pierce, Rockford, Ill.). At 24 hours of culture, an aliquot (0.2 ml) of the suspension was removed and the number of cysts counted using an inverted microscope. The number of cysts was expressed as a ratio factored for the total number of cells in the suspension at 24 hours of culture. Cyst diameter was measured at 100× using an eyepiece micrometer.
as §2, §3, §4
Background: Uptake of a labelled nucleoside into DNA is a usual measure of proliferation.

The mark [4] stands for this setting: human ADPKD cells, cytosine arabinoside 20 μg/ml, α-amanitin 100 ng/ml, cycloheximide 40 μg/ml, amiloride 1 mM, ouabain 0.5 mM, taxol 25 μM, colchicine 10 μM, vinblastine 1 μM, cytochalasins 10 μM.

Entries after “also recorded” stand apart in the source; their conditions may differ. Read-outs that look alike come from different tables or passages of the source.

Regarding `N=C(N)NC(=O)c1nc(Cl)c(N)nc1N` [Amiloride], in the experiment with Murine CPK Cells [1], the “Cyst Formation (+/-)” value is reported as “-”. The “cyst formation (in words)” value with human ADPKD cells (setting [4]) is listed as “completely block cyst formation”; in the experiment with human ADPKD cells (human ADPKD cells, cytosine arabinoside 20 μg/ml, α-amanitin 100 ng/ml, cycloheximide 40 μg/ml, amiloride 1 mM, ouabain 0.5 mM, taxol 25 μM, colchicine 10 μM, vinblastine 1 μM, cytochalasins 10 μM, listed as amiloride), “cyst formation can be blocked”. Moreover, in the experiment with human ADPKD cells (human model), the “time to lumen appearance after removing the inhibitor” value is “twenty-four”. The “reversibility of inhibition of cyst formation” value in the experiment with human ADPKD cells (human model, inhibitor removed) is recorded as “reversible”. The “Cyst Size” value with Murine CPK Cells [2] came out at 0 μm. Besides, in the experiment on Murine CPK Cells [3], the “^3 H-dThd Incorporation” value stood at 72 ± 25 % control.

For the molecule `C[C@H]1CCC/C=C/[C@@H]2C[C@H](O)C[C@H]2[C@H](O)/C=C/C(=O)O1` [Brefeldin-A], the “Cyst Formation (+/-)” value in the experiment with Murine CPK Cells [1] is “-”. Also, the “Cyst Size” value with Murine CPK Cells [2] stood at 0 μm. In addition, in the experiment with Murine CPK Cells [2] (murine CPK cells), the “cyst formation (in words)” value is on record as “completely inhibited cyst formation”.

As for `COc1cc2c(c(OC)c1OC)-c1ccc(OC)c(=O)cc1[C@@H](NC(C)=O)CC2` [Colchicine], the “^3 H-dThd Incorporation” value with Murine CPK Cells [3] is 97 ± 12 % control.

For the molecule `C[C@@H]1C[C@@H]([C@H](O)CC2CC(=O)NC(=O)C2)C(=O)[C@@H](C)C1` [Cycloheximide], the “cyst formation (in words)” value in the experiment with human ADPKD cells is on record as “Neither cytosine arabinoside (20 μg/ml), α-amanitin (100 ng/ml) nor cycloheximide (40 μg/ml) inhibited cyst formation”. Besides, in the experiment on Murine CPK Cells [2], the “Cyst Formation (+/-)” value was “+” and the “Cyst Size” value came out at 68 ± 17 μm. Further, the “^3 H-dThd Incorporation” value in the experiment on Murine CPK Cells [3] came to 88 ± 20 % control.

As to `C=C1C(C)C2C(Cc3ccccc3)NC(=O)C23OC(=O)/C=C/C(O)CCCC(C)C/C=C/C3C1O` (centres unmarked) [Cytochalasin-B], the “Cyst Formation (+/-)” value with Murine CPK Cells [1] is on record as “-”. For the same molecule, the “cyst formation (in words)” value in the experiment on human ADPKD cells (setting [4]) and in the experiment with Murine CPK Cells [2] (murine CPK cells) was “effectively inhibited cyst formation in both models” in each case. Moreover, the “Cyst Size” value in the experiment on Murine CPK Cells [2] was found to be 0 μm. For the same molecule, the “^3 H-dThd Incorporation” value in the experiment on Murine CPK Cells [3] came to 96 ± 5 % control.

With `C=C1C(C)C2C(Cc3ccccc3)NC(=O)C23C(OC(C)=O)/C=C/C(C)(O)C(=O)C(C)C/C=C/C3C1O` (centres unmarked) [Cytochalasin-D], the “Cyst Formation (+/-)” value in the experiment on Murine CPK Cells [1] was “-”. Further, the “cyst formation (in words)” value with human ADPKD cells (setting [4]) and in the experiment with Murine CPK Cells [2] (murine CPK cells) was “effectively inhibited cyst formation in both models” throughout. Moreover, in the experiment with Murine CPK Cells [2], the “Cyst Size” value was 0 μm. Further, the “^3 H-dThd Incorporation” value in the experiment on Murine CPK Cells [3] stood at 97 ± 2 % control.

On to `Nc1ccn([C@@H]2O[C@H](CO)[C@@H](O)[C@@H]2O)c(=O)n1` [Cytosine arabinoside, cytosine arabinoside], for which the “Cyst Formation (+/-)” value in the experiment with Murine CPK Cells [1] was “+”. Further, the “cyst formation (in words)” value is “Neither cytosine arabinoside (20 μg/ml), α-amanitin (100 ng/ml) nor cycloheximide (40 μg/ml) inhibited cyst formation; also recorded: no effect on in vitro cyst formation is observed” with human ADPKD cells (setting [4]) and “cyst formation was not affected; also recorded: cyst formation was not impaired after 24 hours of culture” in the experiment with Murine CPK Cells [2] (murine CPK cells). In addition, the “Cyst Size” value in the experiment on Murine CPK Cells [2] came out at 70 ± 21 μm. Further, the “^3 H-dThd incorporation / DNA synthesis (in words)” value in the experiment on Murine CPK Cells [3] is “profound decrease in ^3 H-dThd incorporation; also recorded: effectively abolished ^3 H-dThd incorporation”. Besides, the entries for the “^3 H-dThd Incorporation” value in the experiment with Murine CPK Cells [3] and with Murine CPK Cells [3] (listed as cytosine arabinoside) were 2 ± 2 % control and 2±2 % control, respectively.

For the molecule `COC(=O)Nc1nc2ccc(C(=O)c3cccs3)cc2[nH]1` [Nocodazole], the “Cyst Formation (+/-)” value in the experiment on Murine CPK Cells [1] is reported as “-”. Besides, the “cyst formation (in words)” value in the experiment with human ADPKD cells (setting [4]) and in the experiment on Murine CPK Cells [2] (murine CPK cells) was “reversibly inhibited” throughout. Besides, the “Cyst Size” value in the experiment on Murine CPK Cells [2] stood at 0 μm. In the experiment on Murine CPK Cells [3], the “^3 H-dThd Incorporation” value is recorded as 87 ± 16 % control.

Consider `CC[C@]1(O)C[C@@H]2CN(CCc3c([nH]c4ccccc34)[C@@](C(=O)OC)(c3cc4c(cc3OC)N(C)[C@H]3[C@@](O)(C(=O)OC)[C@H](OC(C)=O)[C@]5(CC)C=CCN6CC[C@]43[C@@H]65)C2)C1` [Vinblastine], for which the “Cyst Formation (+/-)” value in the experiment on Murine CPK Cells [1] is “-”. For the same molecule, the “cyst formation (in words)” value in the experiment on human ADPKD cells (setting [4]) and in the experiment on Murine CPK Cells [2] (murine CPK cells) was “reversibly inhibited in vitro cyst formation in both models” in each case. For the same molecule, the “Cyst Size” value in the experiment with Murine CPK Cells [2] is reported as 0 μm. In the experiment on Murine CPK Cells [3], the “^3 H-dThd Incorporation” value is 93 ± 9 % control.

As for α-amanitin, the “cyst formation (in words)” value with human ADPKD cells (setting [4]) is “Neither cytosine arabinoside (20 μg/ml), α-amanitin (100 ng/ml) nor cycloheximide (40 μg/ml) inhibited cyst formation”. Also, the “Cyst Size” value in the experiment with Murine CPK Cells [2] came out at 65 ± 27 μm. In addition, in the experiment on Murine CPK Cells [2] (murine CPK cells, day 21, 24 h, final concentration per Table II (cytosine arabinoside 20 μg/ml, α-amanitin 100 ng/ml, cycloheximide 49 μg/ml, ouabain 1 mM, amiloride 1 mM, brefeldin-A 10 μg/ml, griseofulvin 350 μM, colchicine 10 μM, vinblastine 1 μM, nocodazole 30 μM, taxol 25 μM, cytochalasins 10 μM)), the “Cyst Formation (+/-)” value is listed as “+”. Further, in the experiment with Murine CPK Cells [3], the “^3 H-dThd incorporation / DNA synthesis (in words)” value is on record as “small, but significant, decrease in ^3 H-dThd incorporation” and the “^3 H-dThd Incorporation” value came out at 71 ± 10 % control.
